{"source": "ChEMBL document CHEMBL1201862", "about": "“PubChem BioAssay data set” (2004)", "key": {"[1]": {"assay": "A Cell Based Secondary Assay To Explore Cytotoxicity of Compounds that Sensitize Mycobacterium Tuberculosis to Beta-Lactam Antibiotics.", "type": "functional"}, "[2]": {"target": "T1, Apoptotic protease-activating factor 1 (Homo sapiens, UniProt O14727)", "T1 sequence (O14727 whole entry)": "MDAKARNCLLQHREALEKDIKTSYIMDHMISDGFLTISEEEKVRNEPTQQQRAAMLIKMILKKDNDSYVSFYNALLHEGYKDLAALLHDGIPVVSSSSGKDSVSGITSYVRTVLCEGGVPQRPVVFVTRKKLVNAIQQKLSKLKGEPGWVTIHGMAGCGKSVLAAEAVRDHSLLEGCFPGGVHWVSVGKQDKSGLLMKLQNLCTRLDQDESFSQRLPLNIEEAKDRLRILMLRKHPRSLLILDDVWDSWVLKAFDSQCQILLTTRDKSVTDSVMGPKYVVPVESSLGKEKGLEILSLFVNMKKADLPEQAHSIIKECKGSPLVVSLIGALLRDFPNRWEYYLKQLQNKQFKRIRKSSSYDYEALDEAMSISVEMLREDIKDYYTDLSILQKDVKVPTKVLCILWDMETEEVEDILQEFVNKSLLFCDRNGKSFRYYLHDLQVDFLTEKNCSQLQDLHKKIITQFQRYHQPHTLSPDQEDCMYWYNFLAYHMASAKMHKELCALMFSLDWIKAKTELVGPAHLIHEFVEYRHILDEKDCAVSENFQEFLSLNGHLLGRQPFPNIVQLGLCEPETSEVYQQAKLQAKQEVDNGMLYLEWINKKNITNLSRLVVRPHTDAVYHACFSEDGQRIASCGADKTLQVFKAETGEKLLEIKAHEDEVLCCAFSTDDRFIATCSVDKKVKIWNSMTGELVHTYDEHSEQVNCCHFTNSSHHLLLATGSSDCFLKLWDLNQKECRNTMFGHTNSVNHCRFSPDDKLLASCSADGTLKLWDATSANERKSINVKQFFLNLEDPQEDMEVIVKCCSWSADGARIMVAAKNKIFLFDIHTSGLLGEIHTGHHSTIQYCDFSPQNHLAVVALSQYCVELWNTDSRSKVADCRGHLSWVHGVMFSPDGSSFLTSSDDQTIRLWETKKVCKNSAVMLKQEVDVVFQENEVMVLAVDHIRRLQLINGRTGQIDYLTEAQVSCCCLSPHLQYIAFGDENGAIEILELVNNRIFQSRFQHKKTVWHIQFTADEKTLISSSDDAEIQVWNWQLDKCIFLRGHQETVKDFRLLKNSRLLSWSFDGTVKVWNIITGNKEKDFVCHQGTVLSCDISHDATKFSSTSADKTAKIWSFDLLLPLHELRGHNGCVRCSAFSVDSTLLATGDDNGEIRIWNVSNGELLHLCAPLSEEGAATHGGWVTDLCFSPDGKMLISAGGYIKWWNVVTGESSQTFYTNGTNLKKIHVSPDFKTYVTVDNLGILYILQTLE", "type": "functional"}, "[3]": {"target": "Peroxisome proliferator-activated receptor gamma/Nuclear receptor coactivator 1 (Homo sapiens, UniProt P37231)", "assay": "(§1) TR-FRET dose response biochemical High Throughput Screening assay for agonists of the steroid receptor coactivator 1 (SRC-1) recruitment by the peroxisome proliferator-activated receptor gamma (PPAR gamma): non-selective agonists. [Related pubchem assays (depositor defined):AID1300, AID1808, AID504735, AID631]", "type": "protein assay"}, "[4]": {"target": "Peroxisome proliferator-activated receptor gamma/Nuclear receptor coactivator 3 (Homo sapiens, UniProt P37231)", "sequence (P37231 whole entry)": "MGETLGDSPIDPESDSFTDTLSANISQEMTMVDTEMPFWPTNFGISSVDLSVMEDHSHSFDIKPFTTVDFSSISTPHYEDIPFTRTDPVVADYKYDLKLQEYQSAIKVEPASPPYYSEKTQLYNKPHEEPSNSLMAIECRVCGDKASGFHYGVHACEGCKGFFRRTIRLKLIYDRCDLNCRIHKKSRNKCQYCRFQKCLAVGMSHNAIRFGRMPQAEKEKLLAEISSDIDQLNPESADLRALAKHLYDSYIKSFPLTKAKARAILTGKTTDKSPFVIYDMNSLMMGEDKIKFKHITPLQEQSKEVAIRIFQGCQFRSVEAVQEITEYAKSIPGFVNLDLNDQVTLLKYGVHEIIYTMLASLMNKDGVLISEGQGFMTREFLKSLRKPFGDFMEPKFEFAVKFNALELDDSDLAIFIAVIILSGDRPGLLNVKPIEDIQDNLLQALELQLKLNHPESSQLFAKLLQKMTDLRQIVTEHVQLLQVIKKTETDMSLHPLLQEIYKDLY", "sequence (Q9Y6Q9 whole entry, further chain)": "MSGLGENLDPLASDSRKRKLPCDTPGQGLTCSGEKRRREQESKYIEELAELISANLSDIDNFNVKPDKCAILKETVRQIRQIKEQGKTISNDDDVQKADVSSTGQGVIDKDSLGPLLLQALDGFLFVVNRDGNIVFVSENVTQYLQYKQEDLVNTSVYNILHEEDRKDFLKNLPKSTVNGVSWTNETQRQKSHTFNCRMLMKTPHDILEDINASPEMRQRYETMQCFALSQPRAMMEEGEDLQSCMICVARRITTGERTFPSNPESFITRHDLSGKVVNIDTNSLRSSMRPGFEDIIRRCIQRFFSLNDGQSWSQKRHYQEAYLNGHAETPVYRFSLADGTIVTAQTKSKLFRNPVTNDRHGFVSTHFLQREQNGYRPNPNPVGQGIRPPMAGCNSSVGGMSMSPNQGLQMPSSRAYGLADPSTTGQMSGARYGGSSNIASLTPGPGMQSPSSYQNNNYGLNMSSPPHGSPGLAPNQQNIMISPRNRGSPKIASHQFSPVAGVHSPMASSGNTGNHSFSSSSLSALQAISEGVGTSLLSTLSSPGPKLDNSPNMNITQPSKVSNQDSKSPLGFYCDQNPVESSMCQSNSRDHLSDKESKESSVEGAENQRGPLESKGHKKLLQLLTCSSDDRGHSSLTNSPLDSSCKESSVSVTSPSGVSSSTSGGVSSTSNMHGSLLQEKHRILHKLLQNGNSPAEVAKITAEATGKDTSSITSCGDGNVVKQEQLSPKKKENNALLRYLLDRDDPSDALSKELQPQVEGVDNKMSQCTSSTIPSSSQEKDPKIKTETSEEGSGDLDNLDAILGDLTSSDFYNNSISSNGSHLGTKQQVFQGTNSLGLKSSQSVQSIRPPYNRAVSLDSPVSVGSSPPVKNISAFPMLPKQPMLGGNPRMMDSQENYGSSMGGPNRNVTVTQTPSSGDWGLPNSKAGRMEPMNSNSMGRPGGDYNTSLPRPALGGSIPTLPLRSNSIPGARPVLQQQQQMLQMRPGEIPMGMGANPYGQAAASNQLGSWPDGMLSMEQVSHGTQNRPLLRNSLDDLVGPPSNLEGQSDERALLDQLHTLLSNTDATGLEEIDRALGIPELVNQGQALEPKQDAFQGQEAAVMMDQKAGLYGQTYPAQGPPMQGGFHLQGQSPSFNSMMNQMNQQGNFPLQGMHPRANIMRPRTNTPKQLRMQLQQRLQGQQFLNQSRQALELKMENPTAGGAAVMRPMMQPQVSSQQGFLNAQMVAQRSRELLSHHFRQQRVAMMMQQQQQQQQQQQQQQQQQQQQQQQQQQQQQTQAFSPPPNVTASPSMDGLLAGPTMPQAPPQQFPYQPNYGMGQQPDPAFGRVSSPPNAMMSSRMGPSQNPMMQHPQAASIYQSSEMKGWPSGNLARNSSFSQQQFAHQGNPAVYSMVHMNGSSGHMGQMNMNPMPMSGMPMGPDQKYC", "assay": "as §1, with “3 (SRC-3)” for “1 (SRC-1)”, “assays: 1301 (Confirmation screen.), 1048 (Primary screen.)]” for “assays (depositor defined):AID1300, AID1808, AID504735, AID631]”", "type": "functional"}, "[5]": {"target": "Mothers against decapentaplegic homolog 3 (Homo sapiens, UniProt P84022)", "sequence (P84022 whole entry)": "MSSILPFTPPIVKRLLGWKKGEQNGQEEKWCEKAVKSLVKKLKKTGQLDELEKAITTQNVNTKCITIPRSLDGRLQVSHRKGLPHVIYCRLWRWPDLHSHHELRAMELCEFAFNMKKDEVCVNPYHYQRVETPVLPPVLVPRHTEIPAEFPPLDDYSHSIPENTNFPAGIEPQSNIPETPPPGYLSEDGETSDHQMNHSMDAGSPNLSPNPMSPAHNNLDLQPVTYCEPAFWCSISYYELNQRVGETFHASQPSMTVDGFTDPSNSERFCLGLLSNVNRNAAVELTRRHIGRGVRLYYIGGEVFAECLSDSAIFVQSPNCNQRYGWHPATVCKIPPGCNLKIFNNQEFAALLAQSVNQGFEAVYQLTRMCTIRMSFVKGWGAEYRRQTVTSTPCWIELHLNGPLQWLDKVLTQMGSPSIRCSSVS", "assay": "SMAD3 transcription factor inhibitors, dose response (AID 715)", "type": "functional"}, "Estrogen receptor beta": {"target": "Estrogen receptor beta (Homo sapiens, UniProt Q92731)", "sequence (Q92731 whole entry)": "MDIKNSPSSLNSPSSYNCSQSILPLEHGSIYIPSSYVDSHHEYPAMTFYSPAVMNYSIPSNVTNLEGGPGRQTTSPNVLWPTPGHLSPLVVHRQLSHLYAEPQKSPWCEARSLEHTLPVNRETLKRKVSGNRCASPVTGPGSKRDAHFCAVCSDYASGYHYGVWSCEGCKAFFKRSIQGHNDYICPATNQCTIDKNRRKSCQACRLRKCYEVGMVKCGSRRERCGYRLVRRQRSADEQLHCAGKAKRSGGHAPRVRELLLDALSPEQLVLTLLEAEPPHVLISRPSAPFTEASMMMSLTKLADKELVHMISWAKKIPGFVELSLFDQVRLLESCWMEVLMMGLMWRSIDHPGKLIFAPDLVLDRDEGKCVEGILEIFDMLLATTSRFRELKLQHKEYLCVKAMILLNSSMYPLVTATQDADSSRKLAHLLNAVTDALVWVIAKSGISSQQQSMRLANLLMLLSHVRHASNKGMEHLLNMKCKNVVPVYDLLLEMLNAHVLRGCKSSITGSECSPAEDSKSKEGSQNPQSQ", "assay": "ERβ–SRC-3 coactivator interaction inhibitors, confirmation, orthogonal assay, biochemical, ELISA, streptavidin-HRP readout (AID 1060)"}, "[6]": {"target": "Peroxisome proliferator-activated receptor gamma/Nuclear receptor coactivator 2 (Homo sapiens, UniProt P37231)", "sequence (P37231 whole entry)": "as the sequence (P37231 whole entry) above", "sequence (Q15596 whole entry, further chain)": "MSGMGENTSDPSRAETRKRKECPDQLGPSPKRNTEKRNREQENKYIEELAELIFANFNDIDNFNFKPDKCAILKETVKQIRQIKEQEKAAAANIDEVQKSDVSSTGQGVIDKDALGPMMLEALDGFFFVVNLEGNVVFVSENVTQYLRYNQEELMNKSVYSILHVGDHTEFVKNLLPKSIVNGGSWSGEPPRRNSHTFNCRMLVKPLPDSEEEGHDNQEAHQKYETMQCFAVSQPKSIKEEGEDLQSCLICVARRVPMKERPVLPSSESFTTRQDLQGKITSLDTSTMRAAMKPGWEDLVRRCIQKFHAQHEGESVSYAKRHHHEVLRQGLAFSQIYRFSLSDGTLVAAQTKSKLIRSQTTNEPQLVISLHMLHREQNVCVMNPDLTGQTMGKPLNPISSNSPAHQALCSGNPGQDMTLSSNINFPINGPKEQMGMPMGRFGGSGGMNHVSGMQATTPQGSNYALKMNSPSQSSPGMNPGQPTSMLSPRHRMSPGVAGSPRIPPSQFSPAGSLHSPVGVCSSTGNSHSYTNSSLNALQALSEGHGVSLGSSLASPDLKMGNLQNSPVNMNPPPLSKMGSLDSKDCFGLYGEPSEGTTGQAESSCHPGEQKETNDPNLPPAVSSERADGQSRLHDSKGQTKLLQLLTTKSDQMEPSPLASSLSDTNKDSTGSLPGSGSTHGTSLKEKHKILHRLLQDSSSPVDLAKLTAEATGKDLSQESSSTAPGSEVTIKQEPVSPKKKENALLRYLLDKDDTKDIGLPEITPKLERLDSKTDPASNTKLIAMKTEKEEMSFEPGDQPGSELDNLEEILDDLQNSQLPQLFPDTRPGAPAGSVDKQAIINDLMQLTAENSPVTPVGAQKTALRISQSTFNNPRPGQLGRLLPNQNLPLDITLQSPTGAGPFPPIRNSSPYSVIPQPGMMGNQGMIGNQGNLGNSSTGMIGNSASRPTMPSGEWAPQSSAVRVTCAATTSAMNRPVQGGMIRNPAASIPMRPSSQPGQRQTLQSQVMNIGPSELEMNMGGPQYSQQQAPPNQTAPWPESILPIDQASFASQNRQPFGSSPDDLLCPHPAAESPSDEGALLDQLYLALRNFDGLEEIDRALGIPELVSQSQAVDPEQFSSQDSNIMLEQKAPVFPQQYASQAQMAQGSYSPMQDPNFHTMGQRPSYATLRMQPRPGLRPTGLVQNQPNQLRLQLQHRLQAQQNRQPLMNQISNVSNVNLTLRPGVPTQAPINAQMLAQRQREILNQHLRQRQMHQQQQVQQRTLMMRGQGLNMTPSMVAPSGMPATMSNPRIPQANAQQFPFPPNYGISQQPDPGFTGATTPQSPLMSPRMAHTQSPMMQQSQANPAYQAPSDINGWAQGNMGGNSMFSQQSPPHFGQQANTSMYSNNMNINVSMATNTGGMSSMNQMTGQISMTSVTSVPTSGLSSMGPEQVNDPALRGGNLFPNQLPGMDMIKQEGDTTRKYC", "assay": "TR-FRET dose response biochemical High Throughput Screening assay for agonists of the steroid receptor coactivator 2 (SRC-2) recruitment by the peroxisome proliferator-activated receptor gamma (PPAR gamma): non-selective agonists. [Related pubchem assays: 1297, 1032 ]", "type": "functional"}, "[7]": {"target": "T2, Heat shock factor protein 1 (Mus musculus, UniProt P38532)", "T2 sequence (P38532 whole entry)": "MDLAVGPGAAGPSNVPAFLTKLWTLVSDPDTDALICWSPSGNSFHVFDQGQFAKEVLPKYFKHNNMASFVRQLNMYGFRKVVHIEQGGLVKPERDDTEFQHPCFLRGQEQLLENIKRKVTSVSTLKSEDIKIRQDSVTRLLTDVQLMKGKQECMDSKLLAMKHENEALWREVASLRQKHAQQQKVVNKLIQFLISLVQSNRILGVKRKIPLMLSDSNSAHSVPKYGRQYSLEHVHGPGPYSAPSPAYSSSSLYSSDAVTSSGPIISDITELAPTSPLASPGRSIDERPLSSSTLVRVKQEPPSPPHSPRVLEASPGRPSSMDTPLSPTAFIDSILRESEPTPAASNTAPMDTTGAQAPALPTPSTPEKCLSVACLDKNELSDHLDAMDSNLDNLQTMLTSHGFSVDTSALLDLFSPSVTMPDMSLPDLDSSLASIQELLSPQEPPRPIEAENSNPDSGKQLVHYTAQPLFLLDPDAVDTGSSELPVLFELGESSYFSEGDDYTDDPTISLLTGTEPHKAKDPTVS", "assay": "HSF1 potentiators in luciferase reporter cells, confirmation, cell-based, NIH3T3, luminescence, dose retest (AID 435004)", "type": "functional"}, "[8]": {"target": "T2, Heat shock factor protein 1", "assay": "inhibition of MG132-induced HSE-luciferase signal, confirmation, cell-based, NIH3T3, luminescence, dose retest (AID 2382)", "type": "functional"}, "[9]": {"assay": "Luminescence-based counterscreen assay for KLF5 inhibitors: dose response cell-based high throughput screening assay to identify cytotoxic compounds using the IEC-6 intestinal epithelial cell line. [Related pubchem assays: 1700 (Primary screen.), 1834 (Confirmation screen.), 1858 (Summary AID.), 1905 (Counterscreen.)]", "type": "functional"}, "[10]": {"assay": "microbe, parasite or virus in culture", "type": "functional", "settings": "Mycobacterium tuberculosis"}, "[11]": {"assay": "cytotoxicity in HEK-293T cells, dose response, cytotoxicity control for BCR NF-kB inhibitor project, luminescence, B-cell screen hits (AID 489021)", "type": "functional, cell-based"}, "HEK293": {"test_system": "HEK293", "assay": "inhibitors of LMP1-driven NF-kB reporter, dose response, cell-based, HEK293, luciferase, cherry-pick (AID 588343)", "type": "functional", "settings": "Homo sapiens"}, "Paired box protein Pax-8": {"target": "Paired box protein Pax-8 (Homo sapiens, UniProt Q06710)", "assay": "inhibitors of PAX8-driven TPO luciferase reporter, dose response, RMG-I cells, cherry-pick (AID 687027)", "type": "functional, cell-based"}, "[12]": {"assay": "inhibitors of CMV-promoter luciferase reporter, dose response, counter-screen for Pax8 inhibitor project, cell-based, HEK293, luminescence, dry powder (AID 743020)", "type": "functional"}, "[13]": {"assay": "A549 cell cytotoxicity, dose response, cytotoxicity control, plate reader, cherry-pick, antagonist series (AID 743412)", "type": "functional, cell-based"}, "[14]": {"assay": "HepG2 cell cytotoxicity, dose response, cytotoxicity control, plate reader, cherry-pick, antagonist series (AID 743416)", "type": "functional, cell-based"}, "[15]": {"assay": "LGR2 antagonists, dose response, cell-based, HEK293, CRE-luciferase reporter, cherry pick, set 2 (AID 743343)", "type": "functional"}, "[16]": {"assay": "non-specific cell cytotoxicity, dose response, cytotoxicity control for PAX8 inhibitor project, plate reader, dry powder samples (AID 743021)", "type": "functional, cell-based"}, "[17]": {"assay": "MC4R antagonists, dose response, counter-screen for LGR2 antagonist project, cell-based, plate reader, cherry pick (AID 743444)", "type": "functional"}, "[18]": {"assay": "HEK293 cell cytotoxicity, dose response, cytotoxicity control, plate reader, cherry-picked samples (AID 743446)", "type": "functional, cell-based"}, "[19]": {"assay": "enhancers of respiration in Yfh1-depleted yeast, dose response, Friedreich's ataxia, plus single-dose screen (AID 1465)", "type": "functional"}, "[20]": {"target": "Induced myeloid leukemia cell differentiation protein Mcl-1 (Homo sapiens, UniProt Q07820)", "type": "functional"}, "[21]": {"target": "T3, Rac GTPase-activating protein 1 (Homo sapiens, UniProt Q9H0H5)", "T3 sequence (Q9H0H5 whole entry)": "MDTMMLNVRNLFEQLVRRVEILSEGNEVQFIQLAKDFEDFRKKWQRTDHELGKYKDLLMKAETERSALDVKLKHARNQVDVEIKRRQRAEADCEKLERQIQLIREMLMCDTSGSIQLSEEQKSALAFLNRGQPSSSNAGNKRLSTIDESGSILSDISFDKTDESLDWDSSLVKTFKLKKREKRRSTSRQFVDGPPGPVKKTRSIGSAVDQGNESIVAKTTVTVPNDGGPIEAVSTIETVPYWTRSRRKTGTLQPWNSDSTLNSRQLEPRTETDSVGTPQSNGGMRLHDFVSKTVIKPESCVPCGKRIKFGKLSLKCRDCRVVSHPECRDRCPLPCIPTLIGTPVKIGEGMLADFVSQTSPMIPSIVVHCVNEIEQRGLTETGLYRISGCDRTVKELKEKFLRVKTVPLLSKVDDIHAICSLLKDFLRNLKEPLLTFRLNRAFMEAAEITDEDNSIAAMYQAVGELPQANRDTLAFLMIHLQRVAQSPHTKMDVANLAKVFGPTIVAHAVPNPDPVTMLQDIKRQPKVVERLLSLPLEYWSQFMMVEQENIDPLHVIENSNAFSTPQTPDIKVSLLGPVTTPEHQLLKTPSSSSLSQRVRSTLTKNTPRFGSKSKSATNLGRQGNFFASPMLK", "assay": "MgcRacGAP GTPase-activating activity inhibitors, confirmation, biochemical, ADP Hunter fluorescence, primary and confirmatory (AID 624330)", "type": "functional"}}, "note": "Activity calls are given as the source filed them.", "data": [{"smiles": "Cc1nn(-c2ccccc2)c(O)c1/C=N/NC(=O)c1cccc([N+](=O)[O-])c1", "values": [{"measurement": "CC50", "setting": "[1]", "value": "7.57 µM (active)"}, {"measurement": "IC50", "setting": "[2]", "value": "13.2 µM (active)"}]}, {"smiles": "COC(=O)c1ccc(CSc2ncnc3c2oc2ccccc23)o1", "values": [{"measurement": "EC50", "setting": "[3]", "value": "29.1 µM (inactive)"}, {"measurement": "EC50", "setting": "[4]", "value": "> 79.4 µM (not active)"}, {"measurement": "IC50", "setting": "[5]", "value": "14.7 µM (active)"}, {"measurement": "IC50", "setting": "Estrogen receptor beta", "value": "0.0578 µM (not active)"}, {"measurement": "EC50", "setting": "[6]", "value": "> 8.82 µM (not active)"}, {"measurement": "EC50", "setting": "[7]", "value": "> 260 µM (inactive)"}]}, {"smiles": "COc1ccc(OCc2cccc(C(=O)Nn3cc([N+](=O)[O-])cn3)c2)cc1", "values": [{"measurement": "EC50", "setting": "[8]", "value": "4.92 µM (active)"}, {"measurement": "IC50", "setting": "[9]", "value": "> 39.8 µM (not active)"}, {"measurement": "CC50", "setting": "[10]", "value": "> 40 µM (active)"}, {"measurement": "IC50", "setting": "[11]", "value": "> 80 µM (inactive)"}, {"measurement": "AC50", "setting": "HEK293", "value": "0.709 µM (active)"}, {"measurement": "AC50", "setting": "Paired box protein Pax-8", "value": "1.13 µM (active)"}, {"measurement": "AC50", "setting": "[12]", "value": "21 µM (active)"}, {"measurement": "AC50", "setting": "[13]", "value": "> 52 µM (inactive)"}, {"measurement": "AC50", "setting": "[14]", "value": "34.1 µM (active)"}, {"measurement": "AC50", "setting": "[15]", "value": "0.407 µM (active)"}, {"measurement": "AC50", "setting": "[16]", "value": "10.1 µM (active)"}, {"measurement": "AC50", "setting": "[17]", "value": "0.462 µM (active)"}, {"measurement": "AC50", "setting": "[18]", "value": "> 52 µM (inactive)"}]}, {"smiles": "CC1=NN(C(N)=S)C(=O)C1N=Nc1ccc(O)cc1", "note": "(centres undefined)", "values": [{"measurement": "EC50", "setting": "[19]", "value": "> 100 µM (active)"}, {"measurement": "IC50", "setting": "[20]", "value": "9.66 µM (active)"}, {"measurement": "IC50", "setting": "[21]", "value": "16.6 µM (active)"}]}]}
